Results taken from patent publication US20230348426A1, “OXOPYRROLIDINE FPR2 AGONISTS” (Bristol-Myers Squibb Company, priority 2020, published 2023).

What was measured:
[1] = biological target: human FPR1 (Homo sapiens (Human), UniProt P21462); assay: FPR1 cyclic adenosine monophosphate (cAMP) assay; format: cell-based; conditions: CHO cells overexpressing human FPR1; forskolin 10 µM; inhibition of cAMP production; read-out: hFPR1 cAMP EC50
Summary of the method: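 CHO cells overexpressing human FPR1 (4,000 cells/well) stimulated with 10 µM forskolin plus 200 µM IBMX in the presence of compound (0.020 nM–100 µM, 1% DMSO), 30 min at room temperature. Intracellular cAMP measured by HTRF. Inhibition of cAMP production fitted to a 4-parameter logistic equation.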

[2] = biological target: human FPR2 (Homo sapiens (Human), UniProt P25090); assay: FPR2 cyclic adenosine monophosphate (cAMP) assay; format: cell-based; conditions: CHO cells overexpressing human FPR2; forskolin 5 µM; inhibition of cAMP production; read-out: hFPR2 cAMP2 EC50
Chain of human FPR2 (P25090 whole entry): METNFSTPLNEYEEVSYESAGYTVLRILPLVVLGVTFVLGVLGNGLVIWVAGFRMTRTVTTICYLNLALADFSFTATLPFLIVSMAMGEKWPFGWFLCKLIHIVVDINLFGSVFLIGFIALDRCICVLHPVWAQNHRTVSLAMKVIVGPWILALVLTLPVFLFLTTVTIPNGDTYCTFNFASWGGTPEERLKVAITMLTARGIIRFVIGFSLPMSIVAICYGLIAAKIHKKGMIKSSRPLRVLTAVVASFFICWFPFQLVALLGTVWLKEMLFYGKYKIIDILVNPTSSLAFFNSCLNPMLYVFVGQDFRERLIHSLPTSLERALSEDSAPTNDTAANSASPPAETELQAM
Summary of the method: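 CHO cells overexpressing human FPR2 (2,000/well) incubated 30 min at room temperature with compound (0.020 nM–100 µM, 1% DMSO), 5 µM forskolin and 200 µM IBMX.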

Chain of human FPR1 (P21462 whole entry): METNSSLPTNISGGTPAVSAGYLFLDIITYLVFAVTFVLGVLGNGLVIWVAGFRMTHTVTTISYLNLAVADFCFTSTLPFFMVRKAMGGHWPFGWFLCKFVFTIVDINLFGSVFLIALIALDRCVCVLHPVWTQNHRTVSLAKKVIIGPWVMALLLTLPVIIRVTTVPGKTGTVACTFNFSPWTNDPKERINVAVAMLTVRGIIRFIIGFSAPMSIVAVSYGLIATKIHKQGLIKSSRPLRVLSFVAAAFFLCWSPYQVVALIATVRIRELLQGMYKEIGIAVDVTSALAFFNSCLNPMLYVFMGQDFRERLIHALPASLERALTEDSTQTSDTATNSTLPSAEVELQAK

SMILES | EC50 [1] [nM] | EC50 [2] [nM]
COc1cc(F)c([C@H]2[C@H](NC(=O)c3ccc(OC(F)F)cc3)C(=O)N(c3cccc(OCCO)n3)[C@H]2C)c(F)c1 [Example 559] | 450 | 6.6
COc1ccnc(N2C[C@@H](c3c(F)cc(OC)cc3F)[C@H](NC(=O)c3ccc(OC(F)F)cc3)C2=O)c1 [Example 32] | 960 | 18
COc1cc(F)c([C@@H]2CN(c3cncn(C4CCN(C)C4)c3=O)C(=O)[C@H]2NC(=O)c2ccc(Cl)cc2)c(F)c1 (stereo partly drawn) [Example 713] | > 5000 | 4
COc1cc(F)c([C@@H]2CN(c3nc(N4CC5(COC5)C4)ccc3F)C(=O)[C@H]2NC(=O)c2ccc(OC(F)F)cc2)c(F)c1 [Example 209] | 130 | 5.5
COc1cc(F)c([C@H]2[C@H](NC(=O)c3ccc(Cl)cc3)C(=O)N(c3cccc(N4CC[C@@H](O)C4)n3)[C@@H]2C)c(F)c1 [Example 545] | 330 | 6
COCCn1cc(C)c(C)c(N2C[C@@H](c3c(F)cc(OC)cc3F)C(NC(=O)c3ccc(Cl)cc3)C2=O)c1=O (stereo partly drawn) [Example 641] | 1000 | 2.8
COc1cc(F)c([C@@H]2CN(c3cc(OCC4CCOC4)ncn3)C(=O)[C@H]2NC(=O)c2ccc(Cl)cc2)c(F)c1 (stereo partly drawn) [Example 509] | 79 | 41
COc1cc(F)c([C@@H]2CN(c3cncn(CC4CCOCC4)c3=O)C(=O)[C@H]2NC(=O)c2ccc(Cl)cc2)c(F)c1 [Example 547] | 2400 | 4.5
COc1cc(F)c([C@@H]2CN(c3cccn4cc(C(C)C)nc34)C(=O)[C@H]2NC(=O)c2ccc(Cl)cc2)c(F)c1 [Example 496] | 1100 | 3
COc1cc(F)c([C@@H]2CN(c3nccc(N4C[C@@H](C)N(C)[C@@H](C)C4)c3C(F)(F)F)C(=O)[C@H]2NC(=O)c2ccc(Cl)cc2)c(F)c1 [Example 181] | 990 | 4.8
COc1cc(F)c([C@@H]2CN(c3cncnc3OC3CCOCC3)C(=O)[C@H]2NC(=O)c2ccc(Cl)cc2)c(F)c1 [Example 543] | 1900 | 6.9
COCCn1cc(F)cc(N2C[C@@H](c3c(F)cc(OC)cc3F)[C@H](NC(=O)c3ccc(OC(F)F)cc3)C2=O)c1=O [Example 268] | 140 | 7.7
CCn1cccc(N2C(=O)[C@@H](NC(=O)c3ccc(OC(F)(F)F)cc3)[C@H](c3c(F)cc(OC)cc3F)[C@@H]2C)c1=O [Example 93] | 68 | 2.6
CCn1cc2c(c(N3C[C@@H](c4c(F)cc(OC)cc4F)[C@@H](NC(=O)c4ccc(OC(F)F)cc4)C3=O)c1=O)CCCC2 [Example 664] | 190 | 8.7
COc1cc(F)c([C@@H]2CN(c3nc(OCC4CCOC4)ccc3F)C(=O)[C@H]2NC(=O)c2ccc(OC(F)F)cc2)c(F)c1 (stereo partly drawn) [Example 535] | 200 | 1
COc1cc(F)c([C@H]2[C@H](NC(=O)c3ccc(OC(F)F)cc3)C(=O)N(c3cccc(N4C[C@@H]5C[C@H]4CN5C)n3)[C@H]2C)c(F)c1 [Example 526] | 2300 | 1.1
COc1cc(F)c([C@@H]2CN(c3ncccc3P(C)(C)=O)C(=O)[C@H]2NC(=O)c2ccc(OC(F)(F)F)cc2)c(F)c1 [Example 22] | 3200 | 13
COc1cc(N2C[C@@H]3C[C@H]2CN3C)nc(N2C(=O)[C@@H](NC(=O)c3ccc(OC(F)F)cc3)[C@H](c3c(F)cc(OC)cc3F)[C@@H]2C)c1 [Example 51] | 5500 | 1.2
COc1cc(F)c([C@@H]2CN(CC3CC3)C(=O)[C@H]2NC(=O)c2ccc(OC(F)F)cc2)c(F)c1 [Example 3, N-((3S,4R)-1-(cyclopropylmethyl)-4-(2,6-difluoro-4-methoxyphenyl)-2-oxopyrrolidin-3-yl)-4-(difluoromethoxy)benzamide] | 1700 | 29
COc1cc(F)c([C@@H]2CN(c3nc(C(F)(F)F)ccc3N3CC[C@H](O)C3)C(=O)[C@H]2NC(=O)c2ccc(Cl)cc2)c(F)c1 [Example 212] | 100 | 5.6
COc1cc(C2CC2)nc(N2C[C@@H](c3c(F)cc(OC)cc3F)[C@H](NC(=O)c3ccc(OC(F)F)cc3)C2=O)c1 [Example 589] | 2600 | 130
COc1cc(F)c([C@@H]2CN(c3nc(N4C[C@H]5C[C@@H]4CN5C)ccc3F)C(=O)[C@H]2NC(=O)c2ccc(OC(F)F)cc2)c(F)c1 [Example 50] | 1700 | 1.2
COc1cc(F)c([C@@H]2CN(c3cccc(P(C)(C)=O)n3)C(=O)[C@H]2NC(=O)c2ccc(Cl)cc2)c(F)c1 [Example 511] | 390 | 66
COCCn1cccc(N2C[C@@H](c3c(F)cc(OC)cc3F)[C@H](NC(=O)c3ccc(Cl)cc3)C2=O)c1=O [Example 137] | 190 | 3.5

Now those with a lower EC50 [1], led by results:

EC50 [1] [nM] | EC50 [2] [nM] | SMILES
1 | 1.9 | COc1ccc([C@@H]2CN(c3c(C)ccn(C(F)F)c3=O)C(=O)[C@H]2NC(=O)c2ccc(OC(F)F)cc2)cc1 [Example 384]
7.4 | < 10 | COc1cc(F)c([C@@H]2CN(c3c(C)ccn(CC4CNC(=O)O4)c3=O)C(=O)[C@H]2NC(=O)c2ccc(OC(F)F)cc2)c(F)c1 (stereo partly drawn) [Example 665]
17 | 2.9 | COc1cc(F)c([C@@H]2CN(c3cccn(CC(OC)C(F)(F)F)c3=O)C(=O)[C@H]2NC(=O)c2ccc(Cl)cc2)c(F)c1 (stereo partly drawn) [Example 417]
26 | 8.2 | COc1cc(F)c([C@@H]2CN(c3nc(N4CCCC4=O)ccc3F)C(=O)[C@H]2NC(=O)c2ccc(OC(F)F)cc2)c(F)c1 [Example 280]
2.2 | 3.5 | COCC(CO)n1cccc(N2C[C@@H](c3ccc(OC)cc3)[C@H](NC(=O)c3ccc(OC(F)(F)F)cc3)C2=O)c1=O (stereo partly drawn) [Example 136]
12 | 1 | COc1cc(F)c([C@@H]2CN(c3c(C)ccn(C4CCOC4)c3=O)C(=O)[C@H]2NC(=O)c2ccc(Cl)cc2)c(F)c1 (stereo partly drawn) [Example 654]
5.9 | 3 | COc1cc(F)c([C@@H]2CN(c3nc(N(C)C(C)=O)ccc3F)C(=O)[C@H]2NC(=O)c2ccc(OC(F)(F)F)cc2)c(F)c1 [Example 114]
1.5 | 1.4 | COc1cc(F)c([C@@H]2CN(c3c(C)ccn(CCS(C)(=O)=O)c3=O)C(=O)[C@H]2NC(=O)c2ccc(OC(F)(F)F)cc2)c(F)c1 [Example 576]
15 | 2.7 | COCC(CO)n1cccc(N2C[C@@H](c3ccc(OC)cc3)[C@H](NC(=O)c3ccc(Cl)cc3)C2=O)c1=O (stereo partly drawn) [Example 397]
16 | 5.6 | COc1cc(F)c([C@@H]2CN(c3c(C)ccn(CC(O)C(F)(F)F)c3=O)C(=O)[C@H]2NC(=O)c2ccc(Cl)cc2)c(F)c1 (stereo partly drawn) [Example 483]
4 | 2.8 | COc1ccc([C@@H]2CN(c3cccn(CC(C)O)c3=O)C(=O)[C@H]2NC(=O)c2ccc(OC(F)(F)F)cc2)c(F)c1 (stereo partly drawn) [Example 435]
8.5 | 10.5 | COc1cc(F)c([C@@H]2CN(c3c(C)c4c(n(CCO)c3=O)CCC4)C(=O)[C@H]2NC(=O)c2ccc(OC(F)F)cc2)c(F)c1 [Example 591]
0.4 | 2.9 | COc1ccc([C@@H]2CN(c3c(C)ccn(CCO)c3=O)C(=O)[C@H]2NC(=O)c2ccc(OC(F)(F)F)cc2)cc1 [Example 108]
3.4 | 4.1 | COc1cc(F)c([C@@H]2CN(c3cccn(CC(OC)C(F)(F)F)c3=O)C(=O)[C@H]2NC(=O)c2ccc(OC(F)F)cc2)c(F)c1 (stereo partly drawn) [Example 161]
1 | 2.4 | COc1ccc([C@@H]2CN(c3cccn(CC(C)OC)c3=O)C(=O)[C@H]2NC(=O)c2ccc(OC(F)(F)F)cc2)c(F)c1 (stereo partly drawn) [Example 395]
28 | 1.8 | O=C(N[C@@H]1C(=O)N(c2cccn(CC(O)C(F)(F)F)c2=O)C[C@H]1c1ccc(Cl)cc1)c1ccc(OC(F)(F)F)cc1 (stereo partly drawn) [Example 609]
4.2 | 4 | COCC(CO)n1cccc(N2C[C@@H](c3c(F)cc(OC)cc3F)[C@H](NC(=O)c3ccc(OC(F)(F)F)cc3)C2=O)c1=O (stereo partly drawn) [Example 153]
1.3 | 1 | COc1cc(F)c([C@@H]2CN(c3c(C)ccn(C(F)(F)CO)c3=O)C(=O)[C@H]2NC(=O)c2ccc(OC(F)(F)F)cc2)c(F)c1 [Example 659]
1.1 | 23 | COCCn1ccc(C)c(N2C[C@@H](c3ccc(Cl)cc3)[C@H](NC(=O)c3ccc(OC(F)F)cc3)C2=O)c1=O [Example 340]
9 | 8 | COCC(C(=O)N1CC[C@@H](O)C1)n1cccc(N2C[C@@H](c3c(F)cc(OC)cc3F)[C@H](NC(=O)c3ccc(OC(F)F)cc3)C2=O)c1=O (stereo partly drawn) [Example 448]
16 | 8.9 | COCCn1cccc(N2C[C@@H](c3c(F)cc(OC)cc3F)[C@H](NC(=O)c3ccc(OC(F)(F)F)cc3)C2=O)c1=O [Example 37]
0.6 | 0.9 | COc1cc(F)c([C@@H]2CN(c3c(C)ccn(C4CCOC4)c3=O)C(=O)[C@H]2NC(=O)c2ccc(OC(F)(F)F)cc2)c(F)c1 (stereo partly drawn) [Example 350]
22 | 1.5 | CCn1ccc(N2C[C@@H](c3c(F)cc(OC)cc3F)[C@H](NC(=O)c3ccc(Cl)cc3)C2=O)n1 [Example 647]
5 | 1.6 | COc1ccc([C@@H]2CN(c3c(C)ccn(CC(F)F)c3=O)C(=O)[C@H]2NC(=O)c2ccc(Cl)cc2)c(F)c1 [Example 377]
